In article PMC12120022, “Discovery and chemical optimisation of a potent, Bi-cyclic antimicrobial inhibitor of Escherichia coli PBP3” (Communications Biology, 2025):
Where a SMILES comes first, the peptide text is derived from it.

Assays:
[1] = molecular target: T1, EcPBP3 (Escherichia coli, UniProt P0AD68); test: Fluorescence polarisation competition assay with fluorescent Bicycle tracer (tracer 1 / BCY12820); format: binding; details: protein 9.4 nM sets sensitivity limit, top concentration 5 µM, read-out: Ki (nM) by fluorescence polarisation with tracer 1 (BCY12820 as tracer), Geometric mean (Lower 95% CI; Upper 95% CI, n=number of values)
T1 construct: For assays, selections and SPR a construct with residues 60–588 which has the N-terminal domain, but not the transmembrane helix, was used; made in house
T1 sequence (P0AD68 60-588): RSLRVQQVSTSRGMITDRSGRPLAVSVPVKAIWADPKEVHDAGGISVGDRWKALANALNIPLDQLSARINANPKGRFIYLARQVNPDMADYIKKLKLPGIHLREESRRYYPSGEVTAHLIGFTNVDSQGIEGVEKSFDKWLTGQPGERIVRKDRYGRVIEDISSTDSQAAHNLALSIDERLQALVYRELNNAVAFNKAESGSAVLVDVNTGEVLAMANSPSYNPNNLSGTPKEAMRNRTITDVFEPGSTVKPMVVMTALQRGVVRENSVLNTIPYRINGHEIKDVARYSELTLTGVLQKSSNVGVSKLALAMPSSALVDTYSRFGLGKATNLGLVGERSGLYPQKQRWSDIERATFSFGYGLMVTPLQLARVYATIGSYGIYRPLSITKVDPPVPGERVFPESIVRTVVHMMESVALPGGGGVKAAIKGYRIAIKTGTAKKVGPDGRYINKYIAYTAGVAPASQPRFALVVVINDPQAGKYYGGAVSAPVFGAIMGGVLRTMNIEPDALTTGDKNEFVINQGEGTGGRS
Method in brief: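 Unlabelled peptide competes with fluorescent Bicycle tracer (1 nM, as added) for EcPBP3 (9.4 nM, as added) in 10 mM HEPES, 2% glycerol, 300 mM NaCl, pH 8.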

[2] = molecular target: T1, EcPBP3; test: SPR binding assay on immobilised EcPBP3; details: 37 °C, kinetic fitting; NB = no binding at 2500 nM (Tables S-4, S-5) or 5000 nM (Table 1); read-out: Kd (nM) by SPR (geomean)
Experimental: Surface plasmon resonance (SPR) assays were performed using EcPBP3 immobilized on CM5 sensor chips (GE Healthcare) via amine-coupling chemistry in assay buffer (10 mM HEPES pH 8.0, 200 mM NaCl, 0.05% (v/v) surfactant P20). The chip surface was activated by injection (10 μL min^–1) of 0.4 M EDC and 0.1 M NHS (in a 1:1 ratio) with a 7 min contact time. Protein was diluted to 25 μg mL^–1 in 10 mM MOPS (pH 7.0) and injected over the activated sensor chip surface to reach immobilization of 1500-2500 response units. Excess hydroxysuccinimidyl groups on the chip surface were deactivated by injection (10 μL min^–1) of 1 M ethanolamine hydrochloride pH 8.0 with a 7 min contact time. Reference flow cells were prepared as described, but without ligand (EcPBP3 protein).
Binding analysis runs were performed at 37 °C in running buffer (10 mM HEPES pH 8.0, 200 mM NaCl, 0.05% (w/v) Tween-20, 2% (v/v) DMSO). Test compounds (and control runs of buffer only) were injected in running buffer over the EcPBP3 chip and reference flow cell, at flow rate of 50 μL min^–1 for 150 s contact time and 2400 s dissociation time. Each injection was followed by a wash with 50% (v/v) DMSO. All compounds were tested in at least two independent biological replicates unless otherwise stated.
Raw sensorgrams data were solvent-corrected, reference-subtracted and blank-buffer-subtracted (double-referencing) before kinetic and affinity analysis to account for non-specific binding and injection artifacts. Equilibrium dissociation constant (Kd) values was determined using the Biacore™ Insight Evaluation Software (version 4.0.8 or version 5.0.17) using kinetic fitting. Kd values presented are the geometric mean of at least two biological replicates.

SMILES	Ki [1]	Kd [2]
CC(C)[C@@H]1NC(=O)[C@H](Cc2c[nH]c3ccccc23)NC(=O)[C@@H]2CCCN2C(=O)[C@@H]2CSCCC(=O)N3CN(CN(C3)C(=O)CCSC[C@@H](C(=O)N[C@@H](C)C(N)=O)NC(=O)[C@H](Cc3ccc(O)cc3)NC(=O)[C@H](CCC(=O)O)NC1=O)C(=O)CCSC[C@H](NC(=O)[C@H](C)N)C(=O)N[C@@H](CO)C(=O)N[C@@H](Cc1ccccc1)C(=O)N1CCC[C@H]1C(=O)N[C@@H](CCCCNC(=N)N)C(=O)N2 [Peptide 51] (HELM PEPTIDE1{A.C.S.F.P.[N=C(N)NCCCC[C@H](N[*:1])C(=O)[*:2]].C.P.W.V.E.Y.C.A.[am]}|CHEM1{[O=C(CC[*:1])N1CN(C(=O)CC[*:2])CN(C(=O)CC[*:3])C1]}$PEPTIDE1,CHEM1,2:R3-1:R1|PEPTIDE1,CHEM1,7:R3-1:R2|PEPTIDE1,CHEM1,13:R3-1:R3$$$V2.0)	< 9 nM	1.83 nM
CC(C)[C@@H]1NC(=O)[C@H](Cc2c[nH]c3ccccc23)NC(=O)[C@@H]2CCCN2C(=O)[C@@H]2CSCCC(=O)N3CN(CN(C3)C(=O)CCSC[C@@H](C(=O)N[C@@H](C)C(N)=O)NC(=O)[C@H](C)NC(=O)[C@H](CCC(=O)O)NC1=O)C(=O)CCSC[C@H](NC(=O)[C@H](C)N)C(=O)N[C@@H](CO)C(=O)N[C@@H](Cc1ccccc1)C(=O)N1CCC[C@H]1C(=O)N[C@@H](CCCCN)C(=O)N2 [Peptide 24]	25.5 nM	24.4 nM
CC(C)C[C@@H]1NC(=O)[C@@H](NC(=O)[C@H](C)N)CSCCC(=O)N2CN3CN(C2)C(=O)CCSC[C@H](NC(=O)[C@H](CCCCNC(=N)N)NC(=O)[C@@H]2CCCN2C(=O)[C@H](Cc2ccccc2)NC1=O)C(=O)N1CCC[C@H]1C(=O)N[C@@H](Cc1c[nH]c2ccccc12)C(=O)N[C@@H](C(C)C)C(=O)N[C@@H](CCC(=O)O)C(=O)NCC(=O)N[C@H](C(=O)N[C@@H](C)C(N)=O)CSCCC3=O [Peptide 27] (HELM PEPTIDE1{A.C.L.F.P.[N=C(N)NCCCC[C@H](N[*:1])C(=O)[*:2]].C.P.W.V.E.G.C.A.[am]}|CHEM1{[O=C(CC[*:1])N1CN(C(=O)CC[*:2])CN(C(=O)CC[*:3])C1]}$PEPTIDE1,CHEM1,2:R3-1:R1|PEPTIDE1,CHEM1,7:R3-1:R2|PEPTIDE1,CHEM1,13:R3-1:R3$$$V2.0)	< 9 nM	3.36 nM
CC(C)[C@@H]1NC(=O)[C@H](Cc2c[nH]c3ccccc23)NC(=O)[C@@H]2CCCN2C(=O)[C@@H]2CSCCC(=O)N3CN(CN(C3)C(=O)CCSC[C@H](NC(=O)[C@H](C)N)C(=O)N[C@@H](Cc3ccccc3)C(=O)N[C@@H](Cc3ccccc3)C(=O)N3CCC[C@H]3C(=O)N[C@@H](CCCCNC(=N)N)C(=O)N2)C(=O)CCSC[C@@H](C(=O)N[C@@H](C)C(N)=O)NC(=O)CNC(=O)[C@H](CCC(=O)O)NC1=O [Peptide 28] (HELM PEPTIDE1{A.C.F.F.P.[N=C(N)NCCCC[C@H](N[*:1])C(=O)[*:2]].C.P.W.V.E.G.C.A.[am]}|CHEM1{[O=C(CC[*:1])N1CN(C(=O)CC[*:2])CN(C(=O)CC[*:3])C1]}$PEPTIDE1,CHEM1,2:R3-1:R1|PEPTIDE1,CHEM1,7:R3-1:R2|PEPTIDE1,CHEM1,13:R3-1:R3$$$V2.0)	< 9 nM	1.12 nM
CC(C)[C@@H]1NC(=O)[C@H](Cc2c[nH]c3ccccc23)NC(=O)[C@@H]2CCCN2C(=O)[C@@H]2CSCCC(=O)N3CN(CN(C3)C(=O)CCSC[C@H](NC(=O)[C@H](C)N)C(=O)N[C@@H](CO)C(=O)N[C@@H](Cc3ccccc3)C(=O)N3CCC[C@H]3C(=O)N[C@@H](C)C(=O)N2)C(=O)CCSC[C@@H](C(=O)N[C@@H](C)C(N)=O)NC(=O)CNC(=O)[C@H](CCC(=O)O)NC1=O [Peptide 19]	< 9 nM	12.4 nM
